According to ChEMBL document CHEMBL1157539, “Thousands of chemical starting points for antimalarial lead identification” (Nature, 2010):

Test system: Plasmodium falciparum
Assay: GSK_TCMDC: Inhibition of Plasmodium falciparum 3D7 in whole erythrocytes, using parasite LDH activity as an index of growth.
Type: functional, organism-based
Conditions: Plasmodium falciparum, 3D7

Row | Compound | XC50 [nM]
1 | NC(=O)c1ccc(C(=O)Nc2cccc(-c3csc(-c4nc5ccccc5[nH]4)c3)c2)cc1 | 351
2 | Cc1cc(-c2ccc(CN3Cc4ccccc4C3)cc2)ccc1S(=O)(=O)NCCN1CCCC1 | 966
3 | CN(C)C(=O)CCCn1c(CNCCCNc2cc(=O)c3ccccc3[nH]2)cc2c(Cl)cc(Cl)cc21 | 1190
4 | O=C(/C=C/c1ccc(Cl)c(Cl)c1)NCCCN1CCC(c2c[nH]c3ccccc23)CC1 | 966
5 | Cc1cccc(NC(=O)c2ccc(C(=O)NC3CCN(CC4CCCCC4)CC3)cc2)c1 | 805
6 | Cc1nc2ccc(-c3ccc(OC(F)(F)F)cc3)cc2c(O)c1C#N | 20.7
7 | CN(C)C(S)=NN=Cc1cccc(O)c1O | 872
8 | CCC(C)Oc1ccc2nc(N)nc(N)c2c1Cl (stereo not drawn) | 177
9 | CSc1ccc(C=CC(=O)NC(=O)c2ccccc2O)cc1 | 289
10 | COc1cc(O)c2c(=O)c(OC)c(-c3cccc(Cl)c3OCC(=O)O)oc2c1OC | 586
11 | Cc1ccc(C(=O)c2oc3ccc4c(C)cc(=O)oc4c3c2C)cc1 | 1030
12 | CCCCCCCN1C2CCC1CC(CCOc1ccnc3ccc(OC)cc13)C2 (stereo not drawn) | 389
13 | Cc1ccc2c(OCCN3CCC(Cc4ccc5c(c4)NC(=O)CO5)CC3)cc(F)cc2n1 | 755
14 | COc1ccc(O)cc1Cc1cnc2nc(N)nc(N)c2c1C | 8.25
15 | CC(Cc1ccc(OCCCCOc2ccccc2)cc1)NCCCN1CCOCC1 (stereo not drawn) | 725
16 | COc1cc(Cc2cnc(N)nc2N)cc(OCCCCC2SC(=O)NC2=O)c1Br (stereo not drawn) | 123
17 | Cc1cc(NC(=O)c2ccco2)ccc1OC1CCN(Cc2ccccc2)CC1 | 531
18 | COc1ccccc1CCC(C)(C)NC(=O)CC(CCc1ccccc1)Nc1ccc(C#N)c2ccccc12 (stereo not drawn) | 919
19 | Nc1c2c(nc3ccc(NC(=O)c4ccccc4)cc13)CCCC2 | 611
20 | O=C(/C=C/c1ccc(Cl)c(Cl)c1)NCCCCCN1CCC(NC(=S)Nc2cccc(Cl)c2)CC1 | 873
21 | O=C(CCN1C(=O)c2ccccc2C1=O)N1CCN(CC=Cc2ccccc2)CC1 | 541
22 | CN(C)CCN(Cc1ccccc1-c1ccc(CNCCc2ccccc2)cc1)C(=O)c1ccccc1 | 1700
23 | Cc1cccc2nc(-c3cccc(-c4ccc(NC(=O)C(=O)c5cccn5C)cc4)c3)[nH]c12 | 375
24 | c1ccc2c(Nc3ccc(Oc4ccc(Nc5c6ccccc6nc6ccccc56)cc4)cc3)c3ccccc3nc2c1 | 518
25 | N#Cc1c(F)cc(N2CCC(NCC[C@H](N)Cc3ccc(F)c(F)c3)CC2)cc1F | 857

Row | Compound | XC50 [nM]
26 | COCCN1CCC(N(Cc2ccc(-c3ccc(OC(F)(F)F)cc3)cc2)C(=O)Cn2c(CCc3cccc(F)c3F)cc(=O)c3ccccc32)CC1 | 1210
27 | CCC[C@@H]([C@@H](CC1CCCCC1)C(=O)N[C@H](C(=O)Nc1nccs1)[C@H](C)O)N(O)C=O | 148
28 | Oc1ccc2ccccc2c1CNCC1CCCCC1 | 667
29 | O=C(Nc1ccc(OC2CCN(Cc3ccccc3)C2)c(Cl)c1)c1ccsc1 (stereo not drawn) | 735
30 | O=C(CC1SC(N2N=C(c3cccs3)CC2c2ccccc2)=NC1=O)Nc1ccc(Cl)cc1 (stereo not drawn) | 1680
31 | Cc1nnsc1C(=O)Nc1ccc(-c2ccc(-c3nc4ccccc4[nH]3)s2)cc1 | 825
32 | CC1CCC(NCc2c(O)ccc3ccccc23)CC1 (stereo not drawn) | 772
33 | CC(C)CCNCc1ccc(OCc2cccc(COc3ccc(CNCCC(C)C)cc3I)c2)c(I)c1 | 453
34 | c1ccc(CCNc2nc(NCC(c3ccccc3)c3ccccc3)c3nc[nH]c3n2)cc1 | 617
35 | COc1ccc2nccc(CCN3CC(O)C(CNCc4ccc5c(n4)NC(=O)CS5)C3)c2n1 (stereo not drawn) | 1460
36 | c1ccc2c(NCCCCCCCCCNc3c4ccccc4nc4ccccc34)c3ccccc3nc2c1 | 298
37 | COc1ccc(F)cc1-c1ccc(C(=O)N2CCCN(c3ccc(C#N)cn3)CC2)cc1 | 112
38 | O=C(Nc1cccc(-c2nn3ccccc3c2-c2ccnc(Nc3cccc(F)c3)n2)c1)c1c(F)ccc(F)c1Cl | 1140
39 | CC(O)C1CCCCN1C(=O)c1cccc(-c2cccc(-c3nc4ccccc4[nH]3)c2)c1 (stereo not drawn) | 534
40 | CCOCc1cn(CC(=O)c2ccc(-c3ccccc3)cc2)c(C)nc1=N | 319
41 | Cn1ccc(C(=O)Nc2ccc3c(c2)CN(Cc2ccc(N4CCCC4)o2)CCC3)n1 | 1310
42 | CC(C)(C)c1ccccc1OC(=O)c1ccccc1 | 740
43 | Cc1onc(-c2c(Cl)cccc2Cl)c1C(=O)N1CCc2cc3nccc(N4CCN5CCC[C@H]5C4)c3cc21 | 768
44 | O=C(Nc1ccc(Cn2ncc(N3CCCNCC3)c(Cl)c2=O)cc1)Nc1cc(F)cc(C(F)(F)F)c1 | 767
45 | CCOc1ccccc1C(=O)N1CCc2cc3nccc(N4CCN5CCC[C@H]5C4)c3cc21 | 753
46 | CNC(=O)c1cnc(Nc2ccc(OCC(O)CN(C)C)cc2)nc1Nc1cccc(OC)c1 (stereo not drawn) | 319
47 | CC(=NNC(S)=NCCc1ccccn1)c1ccccn1 | 319
48 | COc1ccc2[nH]ccc(=NN=Cc3ccccc3)c2c1 | 110
49 | CS(=O)(=O)CCNCc1nc(-c2ccc3c(=O)[nH]cnc3c2)cs1 | 1010
50 | CCN(CC)CCNc1ccnc2[nH]c3ccc([N+](=O)[O-])cc3c12 | 198

Row | Compound | XC50 [nM]
51 | O=C(Nc1ccc(Cl)cc1)Nc1ccc(-c2ccc(-c3nc4ccccc4[nH]3)cc2)cc1 | 50.7
52 | COc1ccc(-c2nonc2NC(=O)c2cccc(C)c2)cc1OC | 806
53 | c1ccc(-c2ccc(-c3nc4ccccc4[nH]3)cc2)cc1 | 809
54 | CCCOc1cc(OCCC)cc(-c2cc(=O)c3ccccc3[nH]2)c1 | 58.1
55 | N#Cc1ccc(C(=O)Nc2ccc(Cl)c(N3CCN(CCc4ccccc4)CC3)c2)cc1 | 929
56 | O=C(N[C@@H](Cc1cc(F)cc(F)c1)[C@H](O)CNCc1cccc(C(F)(F)F)c1)c1cc(C2CCCC2)cc(N2CCCC2=O)c1 | 803
57 | O=C(Nc1cccc(CN2CCCN(Cc3cccc(Cl)c3)CC2)c1)c1ccc(Br)cc1 | 944
58 | Cc1ccc2[nH]ncc2c1N(CC1CCCCC1)c1ccnc(Nc2ccc(OCC(O)CN3CC=CCC3)cc2)n1 (stereo not drawn) | 622
59 | C/C=C/COc1ccc(-c2c(C)[nH]c(C)c(Cl)c2=O)cc1 | 197
60 | O=C(Nc1cccc(-c2ccc(-c3nc4cc(F)ccc4[nH]3)cc2)c1)Nc1ccc(F)c(F)c1F | 113
61 | Cc1ccc(C(=O)Nc2ccc(Nc3ccnc4cc(-c5ccncc5)ccc34)cc2O)cc1 | 929
62 | Cc1cc(C2CCN(CCCCNC(=O)c3ccc(NC(=O)c4ccc(Cl)cc4)cc3)CC2)c(C)cc1OCCN(C)C | 766
63 | COc1ccc(NC(=O)Nc2cccc(-c3ccc(-c4nc5cc(C(F)(F)F)ccc5[nH]4)cc3)c2)cc1 | 452
64 | CN1CCN(c2cc3c(cc2Br)CCN3C(=O)Nc2ccc(-c3cnc4ccccc4c3)cc2)CC1 | 576
65 | Cc1cccc(CNc2nc(C)cc(NCCC(=O)NCc3cccc(F)c3)n2)c1 | 850
66 | Cc1cccc2nc(-c3ccc(-c4ccc(CN5CCN(CCO)CC5)cc4)s3)[nH]c12 | 712
67 | NC(=O)c1ccccc1Nc1nc(Nc2ccc(N3CCOCC3)cc2)ncc1[N+](=O)[O-] | 881
68 | CCCC(C)Nc1nc(C)cc(NCCC(=O)Nc2ccccc2)n1 (stereo not drawn) | 959
69 | COc1ccc2ncc(F)c(CCN3CC[C@H](NCc4cc5c(s4)CCCN5)[C@H](O)C3)c2n1 | 962
70 | CC(C)c1ccc2c(c1)C(=O)c1ccc(C(=O)O)cc1S2(=O)=O | 472
71 | CCCCN(CCCC)Cc1cc(Nc2ccnc3cc(Cl)ccc23)ccc1O | 17.2
72 | COc1cc(CNc2ncc(-c3ccsc3)c(-c3nccs3)n2)cc(OC)c1 | 126
73 | O=C(NCCC1CCN(CCc2c[nH]c3ccccc23)CC1)Nc1ccc(Cl)c(Cl)c1 | 834
